Values joined by “and” are separate entries in the source; they are usually repeats but may differ in a detail not shown here. Equal entries are not always repeated. Where two headings read alike, the source gives them in different places.
What was measured:
[1] = Incorporation of [^14C]DMAE-derived radioactivity in tissue lipids; assay type: in vivo, Wistar Han rats; details: male rats, gavage 100 mg/kg, 2 h
[2] = Radiochemical HPLC profiling of urine after [^14C]DMAE; details: Oral
[3] = female Wistar Han rats, gavage 500 mg/kg, 24 h
[4] = male Wistar Han rats, IV 10 mg/kg, 24 h
[5] = male Wistar Han rats, IV 10 mg/kg, 24 h, listed as [^14C]DMAE, 10 mg/kg
[6] = male Wistar Han rats, gavage 10 mg/kg, 24 h
[7] = male Wistar Han rats, gavage 10 mg/kg, 24 h, listed as [^14C]DMAE, 10 mg/kg
[8] = male Wistar Han rats, gavage 100 mg/kg, 24 h
[9] = male Wistar Han rats, gavage 500 mg/kg, 24 h
[10] = male Wistar Han rats, gavage 500 mg/kg, 72 h

CN(C)CCO [DMAE, Dimethylaminoethanol]
Radioactivity in tissue lipids (% dose administered) ([1]; Kidney, Phospholipids): 0.771 % dose | Total radioactivity in tissue lipids ([1]; Kidney, Phospholipids): 1322 | Radioactivity in tissue lipids (% dose administered) ([1]; Liver, Phospholipids): 1.117 % dose | Total radioactivity in tissue lipids ([1]; Liver, Phospholipids): 1915 | Radioactivity in tissue lipids (% dose administered) ([1]; Lung, Fatty Acids): 0.074 % dose | Total radioactivity in tissue lipids ([1]; Lung, Fatty Acids): 127 | Radioactivity in tissue lipids (% dose administered) ([1]; Lung, Neutral Lipids): 0.276 % dose | Total radioactivity in tissue lipids ([1]; Lung, Neutral Lipids): 395 | Radioactivity in tissue lipids (% dose administered) ([1]; Lung, Phospholipids): 0.926 % dose | Total radioactivity in tissue lipids ([1]; Lung, Phospholipids): 1587 | Radioactivity in tissue lipids (% dose administered) ([1]; Skin, Fatty Acids): 0.007 % dose | Total radioactivity in tissue lipids ([1]; Skin, Fatty Acids): 12 | Radioactivity in tissue lipids (% dose administered) ([1]; Skin, Neutral Lipids): 0.003 % dose | Total radioactivity in tissue lipids ([1]; Skin, Neutral Lipids): 4 | Radioactivity in tissue lipids (% dose administered) ([1]; Skin, Phospholipids): 0.251 % dose | Total radioactivity in tissue lipids ([1]; Skin, Phospholipids): 430 | Radioactivity in tissue lipids (% dose administered) ([1]; Spleen, Fatty Acids): 0.004 % dose | Total radioactivity in tissue lipids ([1]; Spleen, Fatty Acids): 7 | Radioactivity in tissue lipids (% dose administered) ([1]; Spleen, Neutral Lipids): 0.004 % dose | Total radioactivity in tissue lipids ([1]; Spleen, Neutral Lipids): 7 | Radioactivity in tissue lipids (% dose administered) ([1]; Spleen, Phospholipids): 0.055 % dose | Total radioactivity in tissue lipids ([1]; Spleen, Phospholipids): 95 | Radioactivity in tissue lipids (% dose administered) ([1]; Testes, Fatty Acids): 0.013 % dose | Total radioactivity in tissue lipids ([1]; Testes, Fatty Acids): 23 | Radioactivity in tissue lipids (% dose administered) ([1]; Testes, Neutral Lipids): 0.008 % dose | Total radioactivity in tissue lipids ([1]; Testes, Neutral Lipids): 11 | Radioactivity in tissue lipids (% dose administered) ([1]; Testes, Phospholipids): 0.097 % dose | Total radioactivity in tissue lipids ([1]; Testes, Phospholipids): 167 | administered dose recovered in tissues (excluding GI tract) (Wistar Han rats, oral, 24 h post-exposure, range over groups): 21–29% | % Dose Recovered, Feces [3]: 0.549 ± 0.147 % dose | % Dose Recovered, Tissues and GI Tract (includes contents) [3]: 27.4 ± 1.40 % dose | % Dose Recovered, Total Recovered [3]: 98.4 ± 0.800 % dose | % Dose Recovered, VOCs [3]: 0.818 ± 0.456 % dose | % Dose Recovered, CO2 (female Wistar Han rats, gavage 500 mg/kg, 24 h, listed as [^14C]DMAE, 500 mg/kg): 6.09 ± 0.810 % dose | % Dose Recovered, CO2 [4]: 3.52 ± 0.780 % dose | % Dose Recovered, Feces [4]: 0.330 ± 0.092 % dose | % Dose Recovered, Tissues and GI Tract (includes contents) [4]: 38.5 ± 2.30 % dose | % Dose Recovered, VOCs [4]: 0.230 ± 0.029 % dose | % Dose Recovered, Urine (male Wistar Han rats, IV 10 mg/kg, 24 h, 10 mg/kg): 39 % dose | % Dose Recovered, Total Recovered [5]: 82 % dose and 81.8 ± 7.10 % dose | % Dose Recovered, Urine [5]: 39.2 ± 7.80 % dose | % Dose Recovered, CO2 [6]: 3.67 ± 0.440 % dose | % Dose Recovered, Feces [6]: 0.206 ± 0.242 % dose | % Dose Recovered, Tissues and GI Tract (includes contents) [6]: 33.9 ± 2.20 % dose | % Dose Recovered, VOCs [6]: 0.153 ± 0.037 % dose | percent radioactivity remaining in all tissues, excluding GI tract [6]: ~28% | % Dose Recovered, Total Recovered [7]: 95 % dose and 94.9 ± 3.20 % dose | % Dose Recovered, Urine [7]: 57.0 ± 4.10 % dose | % Dose Recovered, CO2 [8]: 4.84 ± 0.700 % dose | % Dose Recovered, Feces [8]: 0.302 ± 0.061 % dose | % Dose Recovered, Tissues and GI Tract (includes contents) [8]: 30.1 ± 3.80 % dose | % Dose Recovered, Total Recovered [8]: 93.9 ± 2.90 % dose | percent radioactivity remaining in all tissues, excluding GI tract [8]: ~25% | % Dose Recovered, Urine (male Wistar Han rats, gavage 100 mg/kg, 24 h, listed as [^14C]DMAE, 100 mg/kg): 59 % dose and 58.6 ± 5.10 % dose | % Dose Recovered, CO2 [9]: 4.78 ± 0.810 % dose | % Dose Recovered, Feces [9]: 0.518 ± 0.472 % dose | % Dose Recovered, Tissues and GI Tract (includes contents) [9]: 24.3 ± 2.10 % dose | % Dose Recovered, Total Recovered [9]: 92.1 ± 1.90 % dose | % Dose Recovered, VOCs [9]: 0.198 ± 0.038 % dose | percent radioactivity remaining in all tissues, excluding GI tract [9]: ~21% | % Dose Recovered, Urine (male Wistar Han rats, gavage 500 mg/kg, 24 h, listed as [^14C]DMAE, 500 mg/kg): 62 % dose and 62.1 ± 1.50 % dose | % Dose Recovered, Feces [10]: 1.11 ± 1.01 % dose | % Dose Recovered, Tissues and GI Tract (includes contents) [10]: 14.5 ± 1.20 % dose | % Dose Recovered, Total Recovered [10]: 92.0 ± 2.20 % dose | % Dose Recovered, Urine [10]: 68.6 ± 2.00 % dose | administered dose found as expired CO2 (male Wistar Han rats, gavage, all dose levels (10, 100, 500 mg/kg), 24 h): 4–5% | total administered dose recovered (male and female Wistar Han rats, oral administration, range over groups): 92–98% | excretion in urine (rats, gavage, range over groups): 57–64% | excreted as exhaled CO2 (rats, range over groups): ≤ 6% | Estimated percentage of area of DMAE peak in urine chromatogram ([2]; Mouse/Female, [^14C]DMAE 10 mg/kg): 8% | Estimated percentage of area of DMAE peak in urine chromatogram ([2]; Mouse/Female, [^14C]DMAE 100 mg/kg): 82% | Estimated percentage of area of DMAE peak in urine chromatogram ([2]; Mouse/Female, [^14C]DMAE 500 mg/kg): 66% | Estimated percentage of area of DMAE peak in urine chromatogram ([2]; Mouse/Male, [^14C]DMAE 500 mg/kg): 100%
